Results from patent US20150258202A1, “ANTHOCYANIDIN COMPLEX FOR THE TREATMENT OF MULTIPLE MYELOMA” (priority 2012, published 2015).

Experiments:
[1] = Solubility of delphinidin chloride in aqueous cyclodextrin solutions (complexing); assay type: physicochemical; conditions: pure water, cyclodextrin concentration 0; stirred 30° C. 20 h in the dark, filtered 0.22 μm
Protocol: A reversed-phase HPLC method was used to determine the delphinidin chloride content in the delphinidin-containing compositions.
In this example, the complexing of delphinidin by various cyclodextrins and the solubility of the complex in aqueous solution are investigated.
Neutral aqueous solutions were prepared comprising 10% by weight of the respective cyclodextrin.
Glass flasks were filled with 5 ml each of aqueous cyclodextrin solution and pure water. An excess of delphinidin chloride was then added.
The suspensions were stirred at 30° C. for 20 h in the dark. The suspension was then filtered through a membrane filter of 0.22 μm pore size.

[2] = Stability trials in aqueous solution (0.9% NaCl, 37° C., delphinidin content by HPLC); assay type: physicochemical; conditions: 0.9% NaCl solution, dark
Protocol: To determine the delphinidin chloride content in the delphinidin-containing solutions, a reversed-phase HPLC method was used similar to the one already described above. The following reagents were used in this case:
The solutions were prepared at room temperature and subsequently stored in the dark at 37° C. in closed vials.
The delphinidin content was determined after 1, 2, 3 and 4 h. The table below gives the content determined as a percentage of the starting concentration stated above.
The determination of the delphinidin content in the samples was calculated with the aid of the Agilent ChemStation software using the calibration with the external standard described.

[3] = tested on: mouse myeloma cell line MOPC-315; test: FACS analysis of dead cells stained with propidium iodide; assay type: cell-based; conditions: summary of BLI measurement and FACS analysis
Excerpt: 1. Test Line and Experimental Setup • In the in vitro experiments, the effect of the delphinidin+sulfobutyl ether β-cyclodextrin complex (delphinidin+SBEBCD below) and delphinidin on the mouse myeloma cell line MOPC-315 (ATTC catalog no. TIB-23) was investigated by BLI (=bioluminescence imaging) measurement and FACS (fluorescence activated cell sorting) analysis described below. The methods used (BLI measurement and FACS analysis) are known to those skilled in the art from patent and technical literature, for example, from the FACS-based patent DE 1815352 C1.

For Oc1cc(O)c2cc(O)c(-c3cc(O)c(O)c(O)c3)[o+]c2c1.[Cl-] [Delphinidin chloride], the “Delphinidin chloride (solubility achievable)” value [1] was 70 µg/mL, the “Delphinidin content as a percentage of the starting concentration” value (“Delphinidin content as a percentage” for short) ([2]; 0 h) was 100% and the “Delphinidin content as a percentage” value ([2]; 1 h) was 8.3%. For the same compound, the “Delphinidin content as a percentage” value ([2]; 2 h) was 6.5%, the “Delphinidin content as a percentage” value ([2]; 3 h) was 5.6% and the “Delphinidin content as a percentage” value ([2]; 4 h) was 5.1%. For the same compound, the “Killing of myeloma cells in vitro” value [3] was “kill human myeloma cells in vitro” and the “Dose dependence of cell killing” value ([3]; higher doses) was “virtually all cells are killed at higher doses”.
